Assay results taken from patent US20190076431A1, “SRC INHIBITOR TO BLOCK CELL SURFACE GRP78 EXPRESSION” (University of Southern California, priority 2016, published 2019).

Assays:
[1] = test system: csGRP78; assay: csGRP78 by flow cytometry in CD138+ MM cells from the bone marrow of a MM patient; type: cell-based, human; conditions: DAS 0.3 μM for 24 hr
Description: FIG. 11. […] (A) Peripheral blood mononuclear cells were isolated from the bone marrow of a MM patient and sorted into CD138+ (blue) and CD138− (non-malignant) cells (orange) and csGRP78 was measured by flow cytometry, with RPMI-8226 MM cell line (red) analyzed in parallel. (B) CD138+ MM cells were treated with DAS (0.3 μM) for 24 hr and assayed for csGRP78 by flow cytometry.

[2] = test system: cell surface GRP78; assay: Biotinylated cell surface protein levels after DAS treatment of H929 MM cells (Western blot); type: cell-based; conditions: DAS 1 μM for the indicated time, biotinylated cell surface proteins
Description: Cell Surface Protein Biotinylation and Avidin Pull-down—Following treatment, the cells were washed with cold PBS 3 times. EZ-Link Sulfo-NHS-SS-Biotin (Thermo Scientific, Waltham, Mass.) in PBS at 0.5 mg/ml was added and the cells were gently shaken at 4° C. for 30 min. To stop the biotinylation reaction, the biotin solution was removed, and the cells were rinsed three times with the quenching buffer containing Tris-Cl pH 7.4 in cold PBS. Then cells were rinsed with cold PBS and subjected to either sodium carbonate extraction (see below) or radioimmune precipitation (RIPA) lysis. The RIPA lysis buffer was supplemented with protease and phosphatase inhibitor cocktail (Thermo Scientific). Protein concentrations were determined by Bradford assay (Bio-Rad Lab, Hercules, Calif.). Part of the lysate was saved as whole cell lysate for Western blots to measure the total level of the target proteins. To purify the surface proteins, the remaining lysates were mixed with High Capacity NeutrAvidin Agarose Resin (Thermo Scientific) at room temperature for 1 h, and the resin was washed by RIPA buffer and centrifuged at 3,000× g for 1 min ten times. […]
Immunoblot Analysis—Protein samples were subjected to 10% or 15% SDS-PAGE and Western blot analysis as previously described (9). […] Protein levels were visualized and quantitated by ChemiDoc™ XRS+ Imager (Bio-Rad Lab) or LI-COR Odyssey (LI-COR Biosciences).

[3] = Enhancement of proteasome based therapy (summary statement)

Cc1nc(Nc2ncc(C(=O)Nc3c(C)cccc3Cl)s2)cc(N2CCN(CCO)CC2)n1 [Dasatinib, dasatinib]
csGRP78 by flow cytometry [1]: Suppresses Cell Surface GRP78 | cell surface GRP78 expression [2]: Suppresses Cell Surface GRP78 | effect on proteasome based therapy [3]: enhance proteasome based therapy
